Earlier results on one molecule are cited in paper PMC4862372 (Bioorganic & medicinal chemistry, 2016).

The series has as its system Huh7 cells. The following applies: high-throughput screen performed by GNF.

Each structure is given as a SMILES string.

Take `O=C(NCCc1nc(-c2ccccc2)cs1)c1ccccc1` [Compound 1, 2-(2-Benzamido)ethyl-4-phenylthiazole]: the “Toxicity to mammalian (Huh7) cells” value was “non-toxic”.
